Measurements as given in patent US20090247559A1 (Exelixis, Inc., priority 2007, published 2009).
Where two headings read alike, the source gives them in different places.

Columns and labels:
CDC7 = CDC7 (Homo sapiens, UniProt O00311); assay: CDC7 inhibition, biochemical chemiluminescence assay (Kinase Glo, IC50 determination)
Method: Characterization of CDC7 Inhibition in a Biochemical Chemiluminesence Assay (IC50 Determination):
The IC50 evaluation of compounds against the CDC7 enzyme was performed in a Chemiluminesence assay utilizing a Greiner 384-well white binding plate format. […] Upon addition of 10 μL of CDC-7 (GB) to the designated well plates and subsequent incubation for ten minutes at ambient temperature, 10 μL of ATP mix in Tris Base was added. Following an incubation period of 90 minutes at ambient temperature (24-27° C.), 20 μL of Kinase Glo (Promega) was added to measure kinase activity by quantitating the amount of ATP remaining in solution. The luminescence was measured following a Luciferase Protocol on either EnVision or Victor plate readers.

CK2 = CK2 (Homo sapiens, UniProt P68400); assay: CK2 inhibition, biochemical chemiluminescence holoenzyme assay (Kinase Glo, IC50 determination); conditions: Table 1 activity class; symbol given only if active; read-out: CK2 IC50 (Activity C)
Chain of CK2 (P68400 whole entry): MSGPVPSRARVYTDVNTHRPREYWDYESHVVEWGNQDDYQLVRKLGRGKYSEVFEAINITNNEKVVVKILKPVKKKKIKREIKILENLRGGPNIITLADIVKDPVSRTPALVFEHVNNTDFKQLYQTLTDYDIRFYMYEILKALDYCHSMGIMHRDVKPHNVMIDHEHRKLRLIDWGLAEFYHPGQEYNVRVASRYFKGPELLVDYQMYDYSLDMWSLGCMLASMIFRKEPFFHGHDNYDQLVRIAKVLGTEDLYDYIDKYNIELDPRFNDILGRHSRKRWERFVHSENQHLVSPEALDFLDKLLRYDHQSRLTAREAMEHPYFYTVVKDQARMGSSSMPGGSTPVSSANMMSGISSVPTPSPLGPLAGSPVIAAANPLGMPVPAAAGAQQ
Chain of CK2 (P67870 whole entry partner): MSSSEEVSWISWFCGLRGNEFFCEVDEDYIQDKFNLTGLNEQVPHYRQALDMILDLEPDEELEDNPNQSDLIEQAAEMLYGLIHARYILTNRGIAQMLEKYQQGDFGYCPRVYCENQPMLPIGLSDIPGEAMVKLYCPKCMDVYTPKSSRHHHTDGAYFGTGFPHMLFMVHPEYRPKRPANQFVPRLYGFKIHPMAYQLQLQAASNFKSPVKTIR
Outline: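 Holoenzyme CK2 assay; compounds pre-incubated with substrate and enzyme, then reacted 150 min at 24-27° C. Remaining ATP measured as luminescence with Kinase Glo, and IC50 derived from the signal.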

[1] = target: PIM (PIM-1, PIM-2, and/or PIM-3); assay: PIM-1, PIM-2 and PIM-3 inhibition, biochemical chemiluminescence assays (Kinase Glo, IC50 determination); conditions: Table 1 activity class; PIM refers to PIM-1, PIM-2, and/or PIM-3; read-out: PIM IC50 (Activity B)
[2] = Table 1 activity class, symbol given only if active, read-out: CDC7 IC50 (Activity A)
[3] = compounds in Table 1, read-out: CDC7 IC50 value

Chain of CDC7 (O00311 whole entry): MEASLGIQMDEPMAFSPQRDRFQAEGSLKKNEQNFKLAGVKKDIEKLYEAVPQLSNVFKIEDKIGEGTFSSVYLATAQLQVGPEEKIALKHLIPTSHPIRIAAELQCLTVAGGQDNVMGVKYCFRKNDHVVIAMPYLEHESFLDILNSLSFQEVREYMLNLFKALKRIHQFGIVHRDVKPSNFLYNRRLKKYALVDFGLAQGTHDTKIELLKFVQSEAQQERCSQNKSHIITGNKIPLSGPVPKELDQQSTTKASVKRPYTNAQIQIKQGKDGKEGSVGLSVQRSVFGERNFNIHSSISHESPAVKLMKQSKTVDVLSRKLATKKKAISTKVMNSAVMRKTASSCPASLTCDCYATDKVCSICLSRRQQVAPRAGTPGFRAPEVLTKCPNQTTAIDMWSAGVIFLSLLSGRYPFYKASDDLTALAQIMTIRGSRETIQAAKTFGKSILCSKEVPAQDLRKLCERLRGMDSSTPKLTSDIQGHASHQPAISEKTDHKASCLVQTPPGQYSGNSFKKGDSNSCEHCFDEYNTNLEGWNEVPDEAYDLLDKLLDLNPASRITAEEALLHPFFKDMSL
Chain of CDC7 (Q9UBU7 whole entry partner): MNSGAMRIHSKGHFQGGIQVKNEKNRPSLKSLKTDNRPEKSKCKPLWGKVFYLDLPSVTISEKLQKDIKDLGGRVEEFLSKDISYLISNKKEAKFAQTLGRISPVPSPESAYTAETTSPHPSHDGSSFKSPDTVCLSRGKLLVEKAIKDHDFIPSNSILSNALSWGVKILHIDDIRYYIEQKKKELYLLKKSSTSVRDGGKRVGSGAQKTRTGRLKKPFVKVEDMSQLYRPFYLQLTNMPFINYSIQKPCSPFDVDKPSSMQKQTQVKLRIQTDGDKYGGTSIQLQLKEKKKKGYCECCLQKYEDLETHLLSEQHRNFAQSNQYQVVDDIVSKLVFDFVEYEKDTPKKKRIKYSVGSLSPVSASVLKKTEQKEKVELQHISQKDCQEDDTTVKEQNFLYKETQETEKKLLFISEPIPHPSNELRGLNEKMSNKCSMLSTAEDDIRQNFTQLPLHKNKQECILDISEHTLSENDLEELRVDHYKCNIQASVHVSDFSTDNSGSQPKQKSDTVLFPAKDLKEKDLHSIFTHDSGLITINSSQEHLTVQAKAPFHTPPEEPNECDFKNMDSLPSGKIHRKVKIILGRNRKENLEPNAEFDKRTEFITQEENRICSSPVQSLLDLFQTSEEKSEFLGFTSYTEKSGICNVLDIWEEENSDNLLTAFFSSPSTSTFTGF

SMILES	IC50 (CDC7; [2]) [µM]	IC50 (CK2) [µM]	IC50 [1] [µM]	IC50 (CDC7; [3]) [µM]
O=c1[nH]c(-c2ccc(CNC3CCNCC3)cc2Cl)nc2c1oc1ccc(Br)cc12 [Compound 387, 8-bromo-2-{2-chloro-4-[(piperidin-4-ylamino)methyl]phenyl}[1]benzofuro[3,2-d]pyrimidin-4(3H)-one]	< 10	–	–	–
O=c1[nH]c(-c2ccc(NCC3CCCNC3)cc2Cl)nc2c1oc1ccc(Br)cc12 (stereo not shown) [Cpd 159, 8-bromo-2-{2-chloro-4-[(piperidin-3-ylmethyl)amino]phenyl}[1]benzofuro[3,2-d]pyrimidin-4(3H)-one]	< 10	< 10	–	–
O=c1[nH]c(Cc2ccccc2Br)nc2c1oc1ccc(Br)cc12 [Compound 421, 8-bromo-2-[(2-bromophenyl)methyl][1]benzofuro[3,2-d]pyrimidin-4(3H)one]	< 10	–	< 10	< 0.1
COc1ccc2oc3c(=O)[nH]c(-c4ccccc4Cl)nc3c2c1 [Compound 32, 2-(2-Chlorophenyl)-8-(methyloxy)[1]benzofuro[3,2-d]pyrimidin-4(3H)-one]	< 10	–	–	–
O=c1[nH]c(CNCCN2CCCCC2)nc2c1oc1ccc(Br)cc12 [Compound 431, 8-bromo-2-{[(2-piperidin-1-ylethyl)amino]methyl}[1]benzofuro[3,2-d]pyrimidin-4(3H)-one]	< 10	–	< 10	–
NC(Cc1ccc(OCc2ccccc2)cc1)c1nc2c(oc3ccc(Br)cc32)c(=O)[nH]1 (stereo not shown) [Compound 536, 2-(1-amino-2-{4-[(phenylmethyl)oxy]phenyl}ethyl)-8-bromo[1]benzofuro[3,2-d]pyrimidin-4(3H)-one]	< 10	–	< 10	–
COc1ccc(CC(N)c2nc3c(oc4ccc(Br)cc43)c(=O)[nH]2)cc1 (stereo not shown) [Compound 539, 2-{1-amino-2-[4-(methyloxy)phenyl]ethyl}-8-bromo[1]benzofuro[3,2-d]pyrimidin-4(3H)-one]	< 10	–	< 10	–
O=c1[nH]c([C@@H]2C[C@H](F)CN2)nc2c1oc1ccc(Cl)cc12 [Compound 525, 8-chloro-2-[(2S,4S)-4-fluoropyrrolidin-2-yl][1]benzofuro[3,2-d]pyrimidin-4(3H)-one]	< 10	–	< 10	< 0.1
CN1C[C@@H]2CC[C@H]1CN2Cc1nc2c(oc3ccc(Br)cc32)c(=O)[nH]1 [Compound 330, 8-bromo-2-{[(1S,4S)-5-methyl-2,5-diazabicyclo[2.2.2]oct-2-yl]methyl}[1]benzofuro[3,2-d]pyrimidin-4(3H)-one]	< 10	–	–	–
CN1C[C@@H]2C[C@H]1CN2Cc1nc2c(oc3ccc(Br)cc32)c(=O)[nH]1 [Compound 142, 8-bromo-2-{[(1S,4S)-5-methyl-2,5-diazabicyclo[2.2.1]hept-2-yl]methyl}[1]benzofuro[3,2-d]pyrimidin-4(3H)-one]	< 10	–	–	–
NC(Cc1ccccc1)c1nc2c(oc3ccc(Br)cc32)c(=O)[nH]1 (stereo not shown) [Compound 535, 2-(1-amino-2-phenylethyl)-8-bromo[1]benzofuro[3,2-d]pyrimidin-4(3H)-one]	< 10	–	< 10	–
NC(c1nc2c(oc3ccc(Br)cc32)c(=O)[nH]1)C1CCCCC1 (stereo not shown) [Compound 541, 2-[amino(cyclohexyl)methyl]-8-bromo[1]benzofuro[3,2-d]pyrimidin-4(3H)-one]	< 10	–	< 10	< 0.1
CN(C)CCCN1CCN(Cc2nc3c(oc4ccc(Br)cc43)c(=O)[nH]2)CC1 [Compound 9, 8-bromo-2-({4-[3-(dimethylamino)propyl]piperazin-1-yl}methyl)[1]benzofuro[3,2-d]pyrimidin-4(3H)-one]	< 10	–	< 10	–
O=C(NCCN1CCCCC1)c1ccc(-c2nc3c(oc4ccc(Br)cc43)c(=O)[nH]2)c(Cl)c1 [Compound 383, 4-(8-bromo-4-oxo-3,4-dihydro[1]benzofuro[3,2-d]pyrimidin-2-yl)-3-chloro-N-(2-piperidin-1-ylethyl)benzamide]	< 10	–	–	< 0.1
COc1ccc2oc3c(=O)[nH]c([C@@H]4C[C@H](F)CN4)nc3c2c1 [Compound 530, 2-[(2S,4S)-4-fluoropyrrolidin-2-yl]-8-(methyloxy)[1]benzofuro[3,2-d]pyrimidin-4(3H)-one]	< 10	–	< 10	< 0.1
O=c1[nH]c(CN2CC(O)C2)nc2c1oc1ccc(Br)cc12 [Compound 183, 8-bromo-2-[(3-hydroxyazetidin-1-yl)methyl][1]benzofuro[3,2-d]pyrimidin-4(3H)-one]	< 10	–	–	< 0.1

SMILES	IC50 (CDC7; [2]) [µM]	IC50 (CK2) [µM]	IC50 [1] [µM]	IC50 (CDC7; [3]) [µM]
O=c1[nH]c([C@@H]2CC(F)(F)CN2)nc2c1oc1ccc(Cl)cc12 [Compound 524, 8-chloro-2-[(2S)-4,4-difluoropyrrolidin-2-yl][1]benzofuro[3,2-d]pyrimidin-4(3H)-one]	< 10	–	< 10	< 0.1
O=c1[nH]c(-c2ccccc2Cl)nc2c1oc1ccc(Br)cc12 [Compound 30, 8-Bromo-2-(2-chlorophenyl)[1]benzofuro[3,2-d]pyrimidin-4(3H)-one]	< 10	–	–	–
CN(C)c1ccc(CNCc2nc3c(oc4ccc(Br)cc43)c(=O)[nH]2)cc1 [Compound 104, 8-bromo-2-[({[4-(dimethylamino)phenyl]methyl}amino)methyl][1]benzofuro[3,2-d]pyrimidin-4(3H)-one]	–	< 10	< 10	–
CN(C)C1CCN(Cc2nc3c(oc4ccc(Br)cc43)c(=O)[nH]2)C1 (stereo not shown) [Compound 17, 8-bromo-2-{[3-(dimethylamino)pyrrolidin-1-yl]methyl}[1]benzofuro[3,2-d]pyrimidin-4(3H)-one]	–	< 10	< 10	–
O=c1[nH]c(CNc2ccccc2Cl)nc2c1oc1ccc(Br)cc12 [Compound 11, 8-bromo-2-{[(2-chlorophenyl)amino]methyl}[1]benzofuro[3,2-d]pyrimidin-4(3H)-one]	–	< 10	< 10	–
O=c1[nH]c(CN2CC[C@H](O)C2)nc2c1oc1ccc(NCCc3cccc(F)c3)cc12 [Compound 472, 8-{[2-(3-fluorophenyl)ethyl]amino}-2-{[(3S)-3-hydroxypyrrolidin-1-yl]methyl}[1]benzofuro[3,2-d]pyrimidin-4(3H)-one]	–	< 10	< 10	–
O=c1[nH]c(CNC2Cc3ccccc3C2)nc2c1oc1ccc(Br)cc12 [Compound 263, 8-bromo-2-[(2,3-dihydro-1H-inden-2-ylamino)methyl][1]benzofuro[3,2-d]pyrimidin-4(3H)-one]	–	< 10	< 10	–
COc1cccc2oc3c(=O)[nH]c(-c4ccc5[nH]nc(C)c5c4)nc3c12 [Compound 170, 2-(3-methyl-1H-indazol-5-yl)-9-(methyloxy)[1]benzofuro[3,2-d]pyrimidin-4(3H)-one]	–	< 10	< 10	–
COc1cc(C(=O)Nc2ccc(-c3nc4c(oc5ccc(Br)cc54)c(=O)[nH]3)c(Cl)c2)ccn1 [Compound 335, N-[4-(8-bromo-4-oxo-3,4-dihydro[1]benzofuro[3,2-d]pyrimidin-2-yl)-3-chlorophenyl]-2-(methyloxy)pyridine-4-carboxamide]	–	< 10	< 10	–
O=C(Nc1ccc(-c2nc3c(oc4ccc(Br)cc43)c(=O)[nH]2)c(Cl)c1)c1ccc(Cl)cn1 [Compound 339, N-[4-(8-bromo-4-oxo-3,4-dihydro[1]benzofuro[3,2-d]pyrimidin-2-yl)-3-chlorophenyl]-5-chloropyridine-2-carboxamide]	–	< 10	< 10	–
CN(C)CCCNc1nc2c(oc3ccc(Br)cc32)c(=O)[nH]1 [Compound 193, 8-bromo-2-{[3-(dimethylamino)propyl]amino}[1]benzofuro[3,2-d]pyrimidin-4(3H)-one]	–	< 10	< 10	–
Cc1ccccc1CNc1ccc2oc3c(=O)[nH]c(CN4CC[C@H](O)C4)nc3c2c1 [Compound 461, 2-{[(3S)-3-hydroxypyrrolidin-1-yl]methyl}-8-{[(2-methylphenyl)methyl]amino}[1]benzofuro[3,2-d]pyrimidin-4(3H)-one]	–	< 10	< 10	–
COc1cccc(C(=O)Nc2ccc(-c3nc4c(oc5ccc(Br)cc54)c(=O)[nH]3)c(Cl)c2)c1 [Compound 281, N-[4-(8-bromo-4-oxo-3,4-dihydro[1]benzofuro[3,2-d]pyrimidin-2-yl)-3-chlorophenyl]-3-(methyloxy)benzamide]	–	< 10	< 10	–
CN(C)CC(C)(C)CNc1ccc(-c2nc3c(oc4ccc(Br)cc43)c(=O)[nH]2)c(Cl)c1 [Compound 179, 8-bromo-2-(2-chloro-4-{[3-(dimethylamino)-2,2-dimethylpropyl]amino}phenyl)[1]benzofuro[3,2-d]pyrimidin-4(3H)-one]	–	< 10	< 10	–
O=c1[nH]c(-c2ccc(NCc3c[nH]cn3)cc2Cl)nc2c1oc1ccc(Br)cc12 [Compound 139, 8-bromo-2-{2-chloro-4-[(1H-imidazol-4-ylmethyl)amino]phenyl}[1]benzofuro[3,2-d]pyrimidin-4(3H)-one]	–	< 10	< 10	–
O=C(Cc1ccccc1)N1CCC(c2nc3c(oc4ccc(Br)cc43)c(=O)[nH]2)CC1 [Compound 237, 8-bromo-2-[1-(phenylacetyl)piperidin-4-yl][1]benzofuro[3,2-d]pyrimidin-4(3H)-one]	–	< 10	< 10	–
